The source of these data is PubChem BioAssay AID493108 (The Scripps Research Institute Molecular Screening Center, 2011).

Test systems include ABHD11; LYPLA1; LYPLA2.
What all share (experiment): LYPLA1 and LYPLA2 inhibition in cells, late-stage follow-up, cell-based, gel-based ABPP, fluorescence (AID 493108)
What all share (settings): competitive ABPP fluorescence gel, serine hydrolase inhibition, at 0.03 µM, stronger effect = higher value

Calls of active or inactive are those of the source. The rule behind the calls is not given here.

As for `CCC1CCCCN1C(=O)n1ncc(C(O)(c2ccccc2)c2ccccc2)n1` (centres undefined), the values for the inhibition in the assay on ABHD11, with LYPLA1 and in the assay on LYPLA2 were 100%, 0% (inactive) and 0% (inactive), respectively.
For the compound `CC(C)(O)c1cnn(C(=O)N2CCC(C(C)(C)C)CC2)n1`, the inhibition with ABHD11, in the assay on LYPLA1 and with LYPLA2 was 100% each time.
As for `CC(C)(C)C1CCN(C(=O)n2ncc(C(O)(c3ccccc3)c3ccccc3)n2)CC1`, the inhibition with ABHD11, with LYPLA1 and in the assay on LYPLA2 was 100% in each case.
